What was measured:
thioredoxin = target: T1, thioredoxin (Homo sapiens, UniProt P10599); test: Thioredoxin activity assay in cell lysate; type: cell-based; details: 30 min treatment, HCT 116 cells; versus PMX464 and PX-12 (50 μM)
T1 construct: endogenous in cells
Protocol: HCT 116 cells (1×10^6 cells/flask) were treated with DMSO, 10 μM ferroptocide, 50 μM PMX464, or 50 μM PX-12 for 30 min. Cells were harvested by centrifugation, resuspended in the assay buffer and lysed via sonication. For each condition, 20 μg of cell lysate was used to measure the activity thioredoxin activity following manufacturer' protocol (Cayman Chemical, Fluorescent Thioredoxin Activity Assay kit #20039) in a 96-well black-walled plate. For in vitro studies, human thioredoxin (10 μL of 0.2 μM solution) was used in addition to thioredoxin reductase (10 μL of 1.0 μM solution), 1 μl of DMSO, ferroptocide, […], or PX-12 at indicated concentrations, 5 μL of NADPH (diluted according to manufacturer's instructions), and assay buffer to a final volume of 75 μL. The plate was incubated at 37° C. for 30 min followed by immediate addition of 20 μL fluorescent substrate per each well (diluted as instructed in the assay kit). Fluorescence was monitored over 1 hr at 520 nm after excitation at 480 nm in a SpectraMax M3 (Molecular Devices) instrument at 37° C.

ES-2 cells [1] = test: Confocal microscopy competition with fluorescent analogue P30; type: cell-based; details: pretreatment at 3× IC50 for 30 min, then P30 (5 μM)
Protocol: ES-2 cells (3×10^5 cell) were attached overnight in […] petri dish plates containing 2 ml of RPMI media. Prior to imaging, cells were stained for 30 min with Mitotracker Red CMXRoss at 100 nM final concentration. Upon media replacement, samples were pre-treated with 3× IC50 of ferroptocide, P27, L1, QQ1 for 30 min followed by treatment with 5 μM P30 for an additional 30 min and a PBS wash. PBS or phenol free media was added to each dish and cells were stained with Hoechst 33342 (1 μg/mL).

[2] = Pharmacokinetic assessment; type: in vivo, C57BL/6 mice
Protocol: The protocol was approved by the IACUC at the University of Illinois at Urbana-Champaign (Protocol Number: 14173). In these studies, 10- to 12-week-old female C57BL/6 mice (purchased from Charles River) were used. Ferroptocide was formulated in 100% PEG400. Mice were treated with ferroptocide (40 mg/kg) via i.p. with three mice per time point (15, 30, 45, 60, 120, 240, 480, and 1440 min). At specific time points, mice were sacrificed, and blood was collected, centrifuged; the serum was frozen at −80° C. until analysis. The proteins in a 50 μL aliquot of serum were precipitated by the addition of 50 μL acetonitrile and the sample was centrifuged to remove the proteins. Serum concentrations of ferroptocide were determined by reverse phase HPLC (Shimadzu Corporation, Japan). PK parameters were determined using GraphPad Prism Version 5.00 for Windows.

HCT 116 cells = test: Speed of cell death, AV/PI flow cytometry; type: cell-based
Protocol: (§1) ES-2, HCT 116, Mia PaCa-2, A549, and 4T1 cells (1×10^5 cells/mL) were plated overnight in 12 well plates, prior to addition of compounds. For protection studies, samples were pre-treated with each protecting agent such as 25 μM Q-VD-OPh, 250 μM trolox, 2 μM ferrostatin-1, 5 mM NAC-1 (neutralized pH), or 100 μM deferoxamine (DFO) for two hours or 1 hr (NAC-1) before compound addition. Cells were incubated for the appropriate times and harvested for flow cytometry analysis. Cell pellets were resuspended in binding buffer (10 mM HEPES, pH 7.4, 140 mM NaCl, 2.5 mM CaCl2) containing 2 μg/mL propidium iodide and 5 μL/mL Annexin V-FITC conjugate antibody and analyzed for cell viability after gating for forward and side scattering. Ten thousand events were collected per sample in BD LSR II Flow Cytometer (BD Bioscience) and FCS express V6, De Novo software was used to perform experimental analysis.

ES-2 cells [3] = test: Speed of cell death, AV/PI flow cytometry; type: cell-based; details: 10 μM, ES-2, AV/PI
Protocol: as §1

[4] = system: 4T1 triple negative breast cancer cells; test: 4T1 syngeneic subcutaneous tumor model, immunocompetent mice; type: in vivo; details: 50 mg/kg i.p., twice a week, five doses, Balb/c
Protocol: The protocol was approved by the IACUC at the University of Illinois at Urbana-Champaign (Protocol Number: 17192). 9-week old female Balb/C or SCID mice (Charles River) were lightly sedated with i.p. xylazine/ketamine/saline solution. Following sedation, 4T1 murine breast cancer cells suspended in chilled HBSS (100 μL of 4×10^6 cells/mL) were injected subcutaneously into the right flank of shaved and sedated mice using an insulin syringe. On day 8 after inoculation, mice were randomized with 7 mice per group for vehicle or ferroptocide treatment. Vehicle (PEG400) or ferroptocide (50 mg/kg) was administered intraperitoneally as a PEG400 solution twice a week for 5 times. Tumor measurements were performed every 3 or 4 days using a caliper and tumor volume was calculated using the equation (0.5×l×w^2). On day 23 after the 4T1 cells inoculation, mice were sacrificed. Tumors were then surgically removed, and their mass was measured.

ES-2 cells [5] = test: Mitochondrial ROS production (MitoSOX Red); type: cell-based; details: 1 hr
Protocol: ES-2 cells (1×10^5 cells/mL) were plated in 12-well plates and allowed to attach overnight. Cells were treated for 1 hr with DMSO, 10 and 25 μM ferroptocide, 5 μM IB-DNQ, and 10 μM rotenone. Cells were washed with HBSS and incubated in the dark for 10 min with 5 μM MitoSOX Red probe. Cells were then washed 2× with HBSS and harvested at 1000×g, 3 min. After resuspension in 500 μl HBSS buffer, samples were analyzed with flow cytometry to record ten thousand events per sample in the PE channel in BD LSR II Flow Cytometer (BD Bioscience). FCS express V6 De Novo software was used to generate the histogram.

4T1 cells = test: Cellular lipid ROS production (C11-BODIPY); type: cell-based, murine; details: 10 μM
Protocol: ES-2, HCT 116, and 4T1 cells (1×10^5 cells/mL) were plated in 12-well plates. Cells were pre-treated for 2 hr with 100 μM deferoxamine followed by treatment with DMSO, 10 μM ferroptocide, 10 μM RSL3, or 100 μM TBHP for 1 hr, 1.5 hr and 2 hr respectively. Cells were washed with HBSS and incubated in the dark for 20 min with 5 μM C11-BODIPY probe. Cells were then washed 2× with HBSS and harvested at 1000×g, 3 min. After resuspension in 500 μl HBSS buffer, samples were analyzed with flow cytometry to record ten thousand events per sample in FL1 channel in BD LSR II Flow Cytometer (BD Bioscience). FCS express V6 De Novo software was used to generate histograms.

[6] = female, mouse, ip, 40 mg/kg i.p., C57BL/6 mice, serum

T1 sequence (P10599 whole entry): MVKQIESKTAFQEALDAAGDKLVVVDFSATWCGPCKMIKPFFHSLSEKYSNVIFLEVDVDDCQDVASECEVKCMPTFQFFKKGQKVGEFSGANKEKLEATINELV

**Q.** Which results are given for C[C@@H]1CC[C@@]23C[C@H](O)C(=O)[C@@]2(O)[C@]1(C)[C@H](OC(=O)CCl)C[C@@H](C1=CCn2c(=O)n(-c4ccccc4)c(=O)n2C1)[C@@H]3C [Compound P18, ferroptocide]?
**A.** thioredoxin activity in cell lysate (thioredoxin): significantly reduced the activity of thioredoxin; competition of P30 staining (ES-2 cells [1]): competed away; AUC [2, 6]: 7040 ng·h/mL; half-life [2, 6]: 9.96 min; pharmacokinetics (in words) ([2]; mice): poor pharmacokinetics; time to 50% cell death (HCT 116 cells; 10 μM, HCT 116, AV/PI): 7 h; cell death versus erastin and RSL3 (HCT 116 cells; each at 10 μM, HCT 116 (K-RAS mutant)): inducing more quantitative cell death than the other tool compounds; time to 50% cell death (ES-2 cells [3]): 1 h; effect on subcutaneous 4T1 tumor growth (in words) [4]: inhibits subcutaneous 4T1 tumor growth; tumor growth retardation (tumor volume) ([4]; compared to vehicle): 40%; mitochondrial ROS (ES-2 cells [5]): increase of mitochondrial ROS; lipid ROS (4T1 cells): induces lipid ROS
